Patent US20030097221A1, “Detection and characterization of psychoactives using parallel multi-site assays in brain tissue” (priority 2001, published 2003)
“And” between values parts separate entries of the source, which are not always exact repeats. Identical values can stand only once.

Columns and labels:
Type in all cases: cell-based, rat
[1] = tested on: glutamate receptor-mediated evoked excitatory synaptic transmission, hippocampal slice dentate gyrus; test: Paired-pulse evoked fEPSP in dentate gyrus (assay DG50), MED64
Protocol: A 17-24 day old Sprague Dawley rat was decapitated after anesthesia with halothane (2-bromo-2-chloro-1,1,1-trifluoroethane; Sigma; B4388), and the whole brain was removed. The brain was immediately soaked for ˜2 min in ice-cold, oxygenated preparation buffer of the following composition (in mM): 124 NaCl, 26 NaHCO3, 10 glucose, 3 KCl, 1.25 NaH2PO4, 2 CaCl2, and 2 MgSO4. Appropriate portions of the brain were trimmed and placed on the ice-cold stage of a vibrating tissue slicer (Leica, Nussloch, Germany; VT-1000S). The stage was immediately filled with both oxygenated and frozen preparation buffers. The thickness of each tissue slice was 350 μm. Each slice was gently taken off the blade, and immediately soaked in the oxygenated artificial cerebrospinal fluid (ACSF) for at least 1 hr at room temperature. Then a slice was placed on the center of the MED probe. The slice was positioned to cover the 8×8 array. After positioning the slice, the MED probe was immediately placed in a box filled with 95% O2 and 5% CO2. […]
(§1) Evoked field potentials at all 64 sites (minus stimulation sites) were recorded simultaneously with the multichannel recording system (Panasonic: MED64 system) at a 20 kHz sampling rate. […]
(§2) All assays employ paired-pulse stimulation at various rat hippocampal sites to elicit evoked responses. The resulting field EPSP recordings were analyzed using Matlab software (The MathWorks, Inc.) by computing several response measures such as amplitude, halfwidth, and negative area, which apply to both the first and second evoked reponses. Amplitude was defined as the maximum depolarization magnitude relative to the average baseline reading prior to the first stimulation pulse. […]
The polarity of the evoked responses for assay DG50 was reversed before analysis because of the inverted voltage values recorded by the DG50 electrode. Assays SC50, SC200, MF50, and CA3-1—50, however, were analyzed without such a reversal. […]
(§3) All response paramters were utilized to quantify candidate sample composition effects on the hippocampus. […]

[2] = tested on: glutamate receptor-mediated evoked excitatory synaptic transmission, hippocampal slice mossy fibers; test: Paired-pulse evoked fEPSP, mossy fibers (assay MF50), MED64; details: 250 μM; 50 ms inter-pulse delay
Protocol: A 17-24 day old Sprague Dawley rat was decapitated after anesthesia with halothane (2-bromo-2-chloro-1,1,1-trifluoroethane; Sigma; B4388), and the whole brain was removed. The brain was immediately soaked for ˜2 min in ice-cold, oxygenated preparation buffer of the following composition (in mM): 124 NaCl, 26 NaHCO3, 10 glucose, 3 KCl, 1.25 NaH2PO4, 2 CaCl2, and 2 MgSO4. Appropriate portions of the brain were trimmed and placed on the ice-cold stage of a vibrating tissue slicer (Leica, Nussloch, Germany; VT-1000S). The stage was immediately filled with both oxygenated and frozen preparation buffers. The thickness of each tissue slice was 350 μm. […]
as §1, §2

[3] = tested on: hippocampal slice regions (CA1, DG, MF); test: Comparison between regions of the slice, area under the curve for all 4 assays (FIG. 9); details: prediction drawn from the results of FIG. 9
Protocol: as §2, with “pulse. Halfwidth was defined as the duration of the depolarization phase of the evoked response at half its maximum amplitude value. Negative area was obtained by taking the magnitude of the integral of the evoked response curve over all segments with the same polarity as the depolarization phase. This integral spans a time window of 25 msec beginning one msec after the stimulation pulse.” for “pulse.”
as §3
To compare the response of tissue slices to candidate sample compositions between different regions of the slice, the area under the curve for all 4 assays was calculated.
To compare the effect of compounds in candidate sample compositions between different regions of a tissue slice, the area under the curve for all 4 assays was calculated. […]

[4] = tested on: glutamate receptor-mediated evoked excitatory synaptic transmission, hippocampal slice CA1; test: Paired-pulse evoked fEPSP in CA1, Schaffer collateral stimulation (assays SC50, SC200), MED64 multi-electrode array; set-up: key to SC 50 ms Amplitude fEPSP 1st, Mean / SC 50 ms Amplitude fEPSP 2nd, Mean / SC 200 ms Widths fEPSP 1st, Mean / SC 200 ms Widths fEPSP 2nd, Mean: fractional change vs. last 5 min of pre-wash-in control phase
Protocol: A 17-24 day old Sprague Dawley rat was decapitated after anesthesia with halothane (2-bromo-2-chloro-1,1,1-trifluoroethane; Sigma; B4388), and the whole brain was removed. The brain was immediately soaked for ˜2 min in ice-cold, oxygenated preparation buffer of the following composition (in mM): 124 NaCl, 26 NaHCO3, 10 glucose, 3 KCl, 1.25 NaH2PO4, 2 CaCl2, and 2 MgSO4. Appropriate portions of the brain were trimmed and placed on the ice-cold stage of a vibrating tissue slicer (Leica, Nussloch, Germany; VT-1000S). The stage was immediately filled with both oxygenated and frozen preparation buffers. The thickness of each tissue slice was 350 μm. Each slice was gently taken off the blade, and immediately soaked in the oxygenated artificial cerebrospinal fluid (ACSF) for at least 1 hr at room temperature. Then a slice was placed on the center of the MED probe. The slice was positioned to cover the 8×8 array. After positioning the slice, the MED probe was immediately placed in a box filled with 95% O2 and 5% CO2.
During recording, the slices were continuously perfused with a solution of the following composition: ACSF (in mM): 124 NaCl, 26 NaHCO3, 10 glucose, 3 KCl, 1.25 kH2PO4, 2 CaCl2, 1 MgSO4. All compounds were bath applied at known concentrations and were prepared daily from frozen aliquots. Compounds were purchased from Sigma. Ampakines (CX516, CX546, CX554) were made fresh everyday, and used at concentrations: CX516, 250 μM; CX546, 250 μM; and CX554, 30 μM.
Baseline, application, and recovery time was usually at 10, 20, and 30 min respectively.
During electrophysiological recording, the slices on the MED probe were placed in a small CO2 incubator (Asahi Lifescience; model 4020) at 32° C. The slices were placed on an interface, and a moisturized with a 95% O2 and 5% CO2 gas mixture.
Evoked field potentials at all 64 sites (minus stimulation sites) were recorded simultaneously with the multichannel recording system (Panasonic: MED64 system) at a 20 kHz sampling rate. In the case of the evoked response, one of the planar microelectrodes out of the 64 available was used for the stimulating cathode. Bipolar constant-current pulses (10-50 μA; 0.1 ms) were produced by the data acquisition software via the isolator. The stimulating microelectrode was selected by the 64-switch box.
All assays employ paired-pulse stimulation at various rat hippocampal sites to elicit evoked responses. The resulting field EPSP recordings were analyzed using Matlab software (The MathWorks, Inc.) by computing several response measures such as amplitude, halfwidth, and negative area, which apply to both the first and second evoked reponses. Amplitude was defined as the maximum depolarization magnitude relative to the average baseline reading prior to the first stimulation pulse. Halfwidth was defined as the duration of the depolarization phase of the evoked response at half its maximum amplitude value. Negative area was obtained by taking the magnitude of the integral of the evoked response curve over all segments with the same polarity as the depolarization phase. This integral spans a time window of 25 msec beginning one msec after the stimulation pulse.
Amplitudes and halfwidths for both first and second elicited responses were computed for assays SC50, SC200, and CA3-1—50. For DG50 only first and second amplitudes were computed. Negative areas for first and second responses were computed for SC50, SC200, CA3-1—50, and MF50.
All response paramters were utilized to quantify candidate sample composition effects on the hippocampus. For a given response parameter, the candidate sample composition effect was defined as the percent change of the average measure during the last five minutes of the wash-in phase with respect to the average measure of the last five minutes of the preceding, pre-wash-in control phase. […]

[5] = CX546 250 μM, individual slice files, normalized change over control
[6] = CX546 250 μM, n = 5, normalized change over control

## O=C(c1ccc2c(c1)OCCO2)N1CCCCC1 [CX546]
[1]; 250 μM, 50 ms inter-pulse delay
  responses recorded in dentate gyrus (amplitude): decrease in the amplitude
[1]; area under the curve, representative slices, FIG. 9, CX546 250 μM, CX554 30 μM per Example 3
  second response (fEPSP) in DG: not noticeably altered
[2]
  mossy fibers' response (area): increase
[3]
  degree to which ampakines enhance activation of interneurons (rank order): CX554>CX546>CX516
[4]; 250 μM, 50 ms or 200 ms delay between stimulation pulses
  half-width of both responses in CA1: increase in the half-width
[4]; 250 μM, 50 ms protocol
  change of the first response (amplitude): no change
  decrease in the second response amplitude: 9±3%
[4]; 250 μM, 200 ms protocol
  effect on amplitude of both responses: no effect
[4]; 250 μM, 200 ms protocol, summary of Table 2
  increase of the halfwidth of first and second fEPSP: 14-15%
[4]; CX516, CX546 250 μM, CX554 30 μM
  kind of modulation of the responses in CA1 (halfwidth vs amplitude): selectively increases halfwidth but not the amplitude
[4]; [5]
  SC 50 ms Amplitude fEPSP 1st: 0.063 and 0.087 and 0.012 and −0.022 and 0.025
  SC 50 ms Amplitude fEPSP 2nd: 0.022 and −0.124 (2×) and −0.130 and −0.088
  SC 50 ms Widths fEPSP 1st: 0.096 and 0.155 and 0.114 and 0.202 and 0.102
  SC 50 ms Widths fEPSP 2nd: 0.067 and 0.026 and −0.025 and 0.065 and 0.031
  SC 200 ms Amplitude fEPSP 1st: 0.064 and 0.083 and 0.028 and −0.007 and 0.021
  SC 200 ms Amplitude fEPSP 2nd: 0.047 and 0.061 and 0.011 and −0.015 and 0.013
  SC 200 ms Widths fEPSP 1st: 0.089 and 0.166 and 0.141 and 0.252 and 0.105
  SC 200 ms Widths fEPSP 2nd: 0.102 and 0.207 and 0.180 and 0.189 and 0.132
[4]; CX546 250 μM, n = 5
  SC 50 ms Amplitude fEPSP 1st, Change over Control (%): 3.296%
  SC 50 ms Amplitude fEPSP 2nd, Change over Control (%): −8.884%
  SC 50 ms Widths fEPSP 1st, Change over Control (%): 13.386%
  SC 50 ms Widths fEPSP 2nd, Change over Control (%): 3.276%
  SC 200 ms Amplitude fEPSP 1st, Change over Control (%): 3.764%
  SC 200 ms Amplitude fEPSP 2nd, Change over Control (%): 2.310%
  SC 200 ms Widths fEPSP 1st, Change over Control (%): 15.064%
  SC 200 ms Widths fEPSP 2nd, Change over Control (%): 16.206%
[4]; [6]
  SC 50 ms Amplitude fEPSP 1st, Mean: 0.033
  SC 50 ms Amplitude fEPSP 2nd, Mean: −0.089
  SC 50 ms Widths fEPSP 1st, Mean: 0.134
  SC 50 ms Widths fEPSP 2nd, Mean: 0.033
  SC 200 ms Amplitude fEPSP 1st, Mean: 0.038
  SC 200 ms Amplitude fEPSP 2nd, Mean: 0.023
  SC 200 ms Widths fEPSP 1st, Mean: 0.151
  SC 200 ms Widths fEPSP 2nd, Mean: 0.162
[4]; area under the curve, representative slices, FIG. 9
  area of the second response (fEPSP) in CA1: decreased
